Test results reported in patent publication US7888527B2 (University of Virginia Patent Foundation, priority 2004, dated 2011).

How the values were obtained:
[1] = biological target: T1, human S1P1 receptor (Homo sapiens, UniProt P21453); assay: [γ-35S]GTP binding assay, HEK293T membranes (agonism and Schild antagonism); assay type: biochemical; parameters: expressed in transfected cells; host or cells: HEK293T, transient transfection; membranes; key to Schild analysis flag on pKb S1P1: *: Based on Schild analysis, the antagonism observed was not competitive; details: for EC50: -log molar concentration giving 50% of maximal [γ-35S]GTP binding, ± S.E.M., read-out: pEC50 S1P1 (converted); for Kb: read-out: pKb S1P1 (converted); for Agonist efficacy class S1P1: relative to S1P Emax
T1 sequence (P21453 whole entry): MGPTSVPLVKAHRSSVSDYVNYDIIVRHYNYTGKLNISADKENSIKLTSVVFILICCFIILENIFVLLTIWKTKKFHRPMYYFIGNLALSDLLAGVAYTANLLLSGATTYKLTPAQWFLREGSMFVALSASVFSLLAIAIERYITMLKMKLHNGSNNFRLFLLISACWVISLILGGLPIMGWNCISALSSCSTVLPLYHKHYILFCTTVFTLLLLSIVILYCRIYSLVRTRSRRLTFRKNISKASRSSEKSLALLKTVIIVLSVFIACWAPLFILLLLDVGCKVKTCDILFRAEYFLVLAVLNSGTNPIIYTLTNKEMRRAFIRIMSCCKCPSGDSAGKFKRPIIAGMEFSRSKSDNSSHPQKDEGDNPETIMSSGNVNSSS
From the text: (§1) The appropriate receptor plasmid DNA (encoding human S1P1, human S1P2, human S1P3, human S1P4, human S1P5, human LPA1, human LPA2 or human LPA3 receptors) is mixed with equal amounts of expression plasmids encoding human Gi2α (for S1P3, a mutated (C352F) rat Gi2α is used), cow β1, and cow γ2 proteins, and these DNAs are used to transfect monolayers of HEK293T cells (where ‘T’ indicates expression of the SV-40 virus large T antigen) using the calcium phosphate precipitate method (7). After about 60 hours, cells are harvested, membranes prepared, aliquoted, and stored at −70° C. until use (8).
(§2) The [γ-^35S]GTP binding assay is performed as described previously (8). Membranes containing 1-5 μg of protein are incubated in 0.1 ml of binding buffer (in mM: HEPES/50, NaCl/100, MgCl2/10, pH 7.5) containing 5 μg of saponin, 10 μM GDP, 0.1 nM [γ-^35S]GTP (1200 Ci/mmol), and indicated lipid(s) for 30 min at 30° C. and collected using a Brandel Cell Harvester (Gaithersburg, Md.). Samples are then analyzed for bound radionuclide.
(§3) Briefly, nonlinear analysis of the best-fit line generated by plotting the negative log of the EC50 values obtained from agonist dose-response curves, in the absence and presence of varying concentrations of antagonist, was plotted against the concentration of antagonist to give the Kb value.
(§4) Statistical Analysis. The EC50 and IC50 values for all dose response curves were determined by nonlinear regression analysis of all data using the Graphpad Prism© program. The error associated with the data collected is reported as the standard error of the mean (S.E.M).

[2] = biological target: T2, human S1P4 receptor (Homo sapiens, UniProt O95977); assay: [γ-35S]GTP binding assay, HEK293T membranes; assay type: biochemical; details: -log molar concentration giving 50% of maximal [γ-35S]GTP binding; ± S.E.M.; read-out: pEC50 S1P4 (converted)
T2 construct: expressed in transfected cells; host or cells: HEK293T, transient transfection; membranes
T2 sequence (O95977 1-384): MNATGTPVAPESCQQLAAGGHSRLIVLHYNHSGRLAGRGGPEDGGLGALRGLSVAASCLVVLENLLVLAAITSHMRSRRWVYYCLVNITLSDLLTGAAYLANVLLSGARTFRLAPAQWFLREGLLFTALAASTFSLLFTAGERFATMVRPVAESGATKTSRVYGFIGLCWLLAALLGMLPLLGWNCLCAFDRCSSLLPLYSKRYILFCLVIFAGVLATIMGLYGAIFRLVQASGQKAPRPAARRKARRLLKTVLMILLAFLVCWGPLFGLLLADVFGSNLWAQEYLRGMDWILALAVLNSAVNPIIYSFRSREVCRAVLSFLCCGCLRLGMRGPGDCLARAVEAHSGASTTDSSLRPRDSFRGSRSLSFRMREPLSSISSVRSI
From the text: as §1, §2, §4

[3] = biological target: T3, human S1P5 receptor (Homo sapiens, UniProt Q9H228); assay: [γ-35S]GTP binding assay, HEK293T membranes; assay type: biochemical; details: for Agonist efficacy class S1P5: relative to S1P Emax; for EC50: -log molar concentration giving 50% of maximal [γ-35S]GTP binding, ± S.E.M., read-out: pEC50 S1P5 (converted)
T3 construct: expressed in transfected cells; host or cells: HEK293T, transient transfection; membranes
T3 sequence (Q9H228 whole entry): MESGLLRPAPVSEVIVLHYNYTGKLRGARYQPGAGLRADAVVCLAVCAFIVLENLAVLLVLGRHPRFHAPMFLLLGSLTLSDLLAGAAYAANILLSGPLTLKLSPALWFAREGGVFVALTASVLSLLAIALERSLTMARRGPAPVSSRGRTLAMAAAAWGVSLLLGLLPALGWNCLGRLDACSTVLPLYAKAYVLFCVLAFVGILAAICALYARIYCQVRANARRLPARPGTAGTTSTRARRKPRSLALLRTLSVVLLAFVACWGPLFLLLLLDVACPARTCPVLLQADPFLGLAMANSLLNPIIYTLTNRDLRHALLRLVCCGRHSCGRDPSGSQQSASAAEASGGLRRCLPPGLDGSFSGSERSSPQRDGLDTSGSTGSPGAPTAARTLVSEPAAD
From the text: as §1, §2, §4

[4] = biological target: T4, S1P2 receptor (Homo sapiens, UniProt O95136); assay: [γ-35S]GTP binding assay, HEK293T membranes; assay type: biochemical; details: for EC50: -log molar concentration giving 50% of maximal [γ-35S]GTP binding, ± S.E.M., read-out: pEC50 S1P2 (converted)
T4 construct: expressed in transfected cells; host or cells: HEK293T, transient transfection; membranes
T4 sequence (O95136 whole entry): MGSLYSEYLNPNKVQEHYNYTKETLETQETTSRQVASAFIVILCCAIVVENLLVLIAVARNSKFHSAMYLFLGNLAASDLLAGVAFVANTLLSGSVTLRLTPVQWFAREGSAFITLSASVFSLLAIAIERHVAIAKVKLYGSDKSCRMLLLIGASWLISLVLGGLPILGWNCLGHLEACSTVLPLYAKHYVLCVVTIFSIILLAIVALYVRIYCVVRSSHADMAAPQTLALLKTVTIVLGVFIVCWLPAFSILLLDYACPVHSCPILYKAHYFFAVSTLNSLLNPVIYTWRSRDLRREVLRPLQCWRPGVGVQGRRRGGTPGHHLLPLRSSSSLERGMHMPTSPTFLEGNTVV
From the text: as §1, §2, §4

[5] = biological target: T5, human S1P3 receptor (Homo sapiens, UniProt Q99500); assay: [γ-35S]GTP binding assay, HEK293T membranes (agonism and Schild antagonism); assay type: biochemical; parameters: expressed in transfected cells; host or cells: HEK293T, transient transfection; membranes; key to Schild analysis flag on pKb S1P3: *: Based on Schild analysis, the antagonism observed was not competitive; details: for Agonist efficacy class S1P3: relative to S1P Emax; for Kb: read-out: pKb S1P3 (converted); for EC50: -log molar concentration giving 50% of maximal [γ-35S]GTP binding, ± S.E.M., read-out: pEC50 S1P3 (converted)
T5 sequence (Q99500 whole entry): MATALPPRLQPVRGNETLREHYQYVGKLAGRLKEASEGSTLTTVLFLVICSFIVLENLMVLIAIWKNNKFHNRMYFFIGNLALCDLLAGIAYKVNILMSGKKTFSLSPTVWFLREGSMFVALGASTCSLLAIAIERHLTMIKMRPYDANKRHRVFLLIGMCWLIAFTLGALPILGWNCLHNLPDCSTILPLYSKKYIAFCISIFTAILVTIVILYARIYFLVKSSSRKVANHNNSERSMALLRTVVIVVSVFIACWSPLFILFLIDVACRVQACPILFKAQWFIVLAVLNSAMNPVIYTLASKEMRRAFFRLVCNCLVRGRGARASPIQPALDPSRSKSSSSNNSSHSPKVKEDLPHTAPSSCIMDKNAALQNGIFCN
From the text: as §1, §2, §3, §4

[6] = Metabolic stability in biologic systems (mouse); assay type: in vivo; details: in a mouse
[7] = tested on: S1P receptors; assay: Antagonist properties (potency, S1P receptor type selectivity) compared with VPC23019
[8] = biological target: T5, human S1P3 receptor; assay: [32P]S1P binding assay, HEK293T membranes; parameters: expressed in transfected cells; host or cells: HEK293T, transient transfection; membranes; details: for Ki: read-out: pKi S1P3 (converted)
Method: (§5) [^32P]-S1P was prepared by incubating sphingosine and [γ-^32P]ATP with cell lysate from HEK293T cells transiently transfected with human sphingosine kinase type 2 DNA. The 200 μl reaction contained 0.025 mM sphingosine, 1 mCi [γ-^32P]ATP (7000 Ci/mmol) and kinase buffer (in mM: Mg(C2H3O2)2 (in 50 mM Tris, pH 7.5)/10, NaF/10, and semicarbizide/2). The reaction was initiated by the addition of 20 μg of cell lysate and incubated at 37° C. for at least 30 minutes. […] The organic layer was isolated and the extraction procedure repeated two additional times with the remaining aqueous fraction. The combined organic fractions were dried under a stream of nitrogen gas and resuspended in aqueous 0.1% fatty acid free BSA.
(§6) Bound ligand was separated from free ligand by rapid filtration and analyzed in a liquid scintillation counter.
as §4

[9] = biological target: T1, human S1P1 receptor; assay: [32P]S1P binding assay, HEK293T membranes; parameters: expressed in transfected cells; host or cells: HEK293T, transient transfection; membranes; details: read-out: pKi S1P1 (converted)
Method: as §5, §6, §4

[10] = biological target: T1, human S1P1 receptor; assay: Cell migration assay, T24 cells transfected stably with human S1P1 receptor; assay type: cell-based; parameters: expressed in transfected cells; details: 50 nM antagonist
Method: (§7) […] monolayers are co-transfected with the human S1P1, S1P2, S1P3 receptor encoding DNAs and the pIRESpuro2 plasmid DNA (Clontech, San Jose, Calif.,) using either Lipofectamine 2000 (Invitrogen, Carlsbad, Calif.) or FuGENE 6 (Roche Applied Science, Indianapolis, Ind.). Clonal populations expressing the puromycin acetyltransferase gene are selected by addition of puromycin (Sigma-Aldrich, St. Louis, Mo.) to the culture media. T24 cells are grown in monolayers at 37° C. in a 5% CO2/95% air atmosphere in growth media consisting of: 95% DMEM/F-12 medium and 10% charcoal/dextran stripped FBS.
Cell migration assays are performed using modified Boyden chambers (tissue culture-treated, 24-mm diameter, 10-μm thickness, 8-μm pores, Transwell®; Costar Corp., Cambridge, Mass.) containing polycarbonate membranes that are coated on the underside with 0.1% gelatin. The underside of the polycarbonate membranes is rinsed once with migration media (DMEM/F12 without Phenol Red and 0.1% fatty acid free BSA) and then immersed in the lower chamber containing two milliliters of migration media. T24 cells transfected stably with human S1P1 receptor DNA were grown in DMEM/F12 media containing charcoal/dextran stripped FBS and 10 μg/ml puromycin to 100% confluence in 150×2.5 mm tissue culture plates and serum starved at least 12 hours. Serum-starved cells were removed from culture dishes with 10× Trypsin-EDTA (Hanks' balanced salt solution containing 5 mM EDTA and 25 mM HEPES, pH 7.2, and 0.1% trypsin; Invitrogen, San Diego, Calif.), suspended in migration buffer and collected by centrifugation at 130×g for 5 minutes. The supernatant fluid was removed by aspiration and cell pellet resuspended in migration media (10^6 cells/ml). […] The non-migrating cells in the upper chamber were removed by aspiration and the migratory cells attached to the bottom surface of the membrane were isolated by incubation in 10× Trypsin-EDTA for 1 min at room temperature and gently tapping the plate to dislodge cells from the membrane. The mass of migratory cells per membrane was evaluated by combining 100 μl of cell suspension with an equal volume of CyQuant dye solution (3.0 ml of 2× lysis buffer and 15 μl CyQuant dye), and the resulting fluorescence quantified using the FlexStation™ fluorimeter (Molecular Devices, Menlo Park, Calif.). Each determination represents the average of two individual migration chambers. […] The monolayer was washed three times with phosphate buffered saline and processed immediately for the cell migration assay, as described above.

[11] = biological target: T5, human S1P3 receptor; assay: Intracellular calcium mobilization, T24 cells transfected stably with human S1P3 receptor; assay type: cell-based; parameters: expressed in transfected cells; details: T24-S1P3 cells versus wild-type T24 cells
Method: as §7
A FlexStation™ fluorimeter (Molecular Devices, Menlo Park, Calif.) was used to measure intracellular calcium in native T24 cells and T24 cells transfected stably with either human S1P2 or human S1P3 receptor DNA. Cells were seeded (˜50,000 cells/well) in 96-well, clear bottom black microplates (Corning Costar Corp.) and left overnight at 37° C. The cells were dye-loaded with 4 μM Fluo-4AM ester in a loading buffer (Hank's Balanced Salt Solution, […], containing 20 mM HEPES, 0.1% fatty acid free BSA, and 2.5 mM probenecid) for 30 minutes at 37° C. After washing cell monolayers three times with phosphate buffered saline, loading buffer was added and the cells exposed to sets of compounds for 3 minutes at 25° C. in the FlexStation™. In all cases, each concentration of every compound was tested in at least triplicate. […] The cells were washed with phosphate buffered saline and exposed to compounds immediately, as described above.
as §3

Row | Structure (SMILES) | Agonist activity at the S1P1 receptor [1] | EC50 [1] | EC50 [2] | EC50 [4] | Ki [8] | Ki [9] | Kb [1] | EC50 [3] | Kb [5] | Blockade of VPC22277 (10 nM)-induced migration [10] | Agonist efficacy class S1P5 [3] | Agonist efficacy class S1P3 [5] | Agonist efficacy class S1P1 [1] | further results
1 | CCCCCCCCc1cccc(NC(=O)[C@H](N)CCP(=O)(O)O)c1 [VPC44116] | – | – | – | – | – | – | – | – | – | – | – | – | – | Metabolic stability in biologic systems [6]: at least 18 hours; Antagonist properties (potency, S1P receptor type selectivity) versus VPC23019 [7]: indistinguishable from VPC23019
2 | CCCCCCCCc1ccccc1NC(=O)[C@H](N)COP(=O)(O)O [VPC23089] | – | – | 851 nM | > 10000 nM | 1580 nM | 891 nM | 490 nM | > 10000 nM | 437 nM | Blockade | – | na (no agonist activity (<10% of S1P Emax)) | na (no agonist activity (<10% of S1P Emax)) | Schild analysis flag on pKb S1P3 [5]: *
3 | CCCCCCCCCCCCC/C=C/[C@@H](O)[C@@H](N)COP(=O)(O)O [Compound S1P, Sphingosine 1-phosphate, reference compound] | – | 4.07 nM | 155 nM | – | 7.59 nM | 1.1 nM | – | – | – | – | – | – | – | EC50 [5]: 2.24 nM; Calcium mobilization by compound alone [11]: dose-dependent calcium mobilization was observed
4 | CCCCCCc1cccc(NC(=O)[C@H](N)COP(=O)(O)O)c1 [VPC23031] | – | – | 1100 nM | > 10000 nM | – | 61.7 nM | 135 nM | 135 nM | 10500 nM | Blockade | (wpa) (weak partial agonist activity (10-50% of S1P Emax)) | na (no agonist activity (<10% of S1P Emax)) | na (no agonist activity (<10% of S1P Emax)) | Schild analysis flag on pKb S1P3 [5]: *
5 | CCCCCCCCCCc1cccc(NC(=O)[C@H](N)COP(=O)(O)O)c1 [VPC23069] | agonists (or partial agonists) | 81.3 nM | 851 nM | > 10000 nM | – | – | – | > 10000 nM | – | – | – | (wpa) (weak partial agonist activity (10-50% of S1P Emax)) | – | EC50 [5]: 1910 nM
6 | CCCCCCCc1cccc(NC(=O)[C@H](N)COP(=O)(O)O)c1 [VPC25239] | – | – | 166 nM | > 10000 nM | 97.7 nM | 13.5 nM | 562 nM | 11.5 nM | 1410 nM | Blockade | (pa) (partial agonist activity (50-85% of S1P Emax)) | na (no agonist activity (<10% of S1P Emax)) | na (no agonist activity (<10% of S1P Emax)) | Potency at the S1P3 receptor relative to lead compound VPC23019 [8]: one log order more potent; Schild analysis flag on pKb S1P1 [1]: *

More lines, main results first:

Row | Agonist activity at the S1P1 receptor [1] | EC50 [1] | EC50 [2] | EC50 [4] | Ki [8] | Ki [9] | Kb [1] | EC50 [3] | Kb [5] | Blockade of VPC22277 (10 nM)-induced migration [10] | Structure (SMILES) | Agonist efficacy class S1P5 [3] | Agonist efficacy class S1P3 [5] | Agonist efficacy class S1P1 [1] | further results
7 | agonists (or partial agonists) | 676 nM | 1170 nM | > 10000 nM | – | – | – | – | – | – | CCCCCCCCCc1cccc(NC(=O)[C@H](N)COP(=O)(O)O)c1 [VPC23079] | na (no agonist activity (<10% of S1P Emax)) | na (no agonist activity (<10% of S1P Emax)) | – | –
8 | agonists (or partial agonists) | 2.24 nM | – | – | – | – | – | – | – | – | CCCCCCCCc1cccc(NC(=O)[C@@H](N)COP(=O)(O)O)c1 [VPC25027] | – | na (no agonist activity (<10% of S1P Emax)) | (pa) (partial agonist activity (50-85% of S1P Emax)) | Agonist efficacy class S1P2 ([4]; relative to S1P Emax): na (no agonist activity (<10% of S1P Emax))
